Measured values taken from ChEMBL document CHEMBL1201862, “PubChem BioAssay data set” (2004).
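Assay format: 96-well plates, 48-hour exposure. Here, GI50 denotes the concentration required for 50% inhibition of growth.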 The source made the active and inactive calls. Rule as the data show it: active = GI50 up to about 1.1 µM and inactive = higher.

Legend:
Test in all cases: inhibition of tumour cell growth, NCI panel, 48 h
786-0 = tested on: 786-0
A549 = tested on: A549
ACHN = tested on: ACHN
HCC 2998 = tested on: HCC 2998
HCT-15 = tested on: HCT-15
HOP-62 = tested on: HOP-62
HT-29 = tested on: HT-29
LOX IMVI = tested on: LOX IMVI
M14 = tested on: M14
MDA-N = tested on: MDA-N
MOLT-4 = tested on: MOLT-4
OVCAR-4 = tested on: OVCAR-4
PC-3 = tested on: PC-3
RPMI-8226 = tested on: RPMI-8226
SF-268 = tested on: SF-268
SN12C = tested on: SN12C
SNB-75 = tested on: SNB-75
T47D = tested on: T47D
TK-10 = tested on: TK-10
UACC-257 = tested on: UACC-257

SMILES	GI50 (786-0)	GI50 (A549)	GI50 (ACHN)	GI50 (HCC 2998)	GI50 (HCT-15)	GI50 (HOP-62)	GI50 (HT-29)	GI50 (LOX IMVI)	GI50 (M14)	GI50 (MDA-N)	GI50 (MOLT-4)	GI50 (OVCAR-4)	GI50 (PC-3)	GI50 (RPMI-8226)	GI50 (SF-268)	GI50 (SN12C)	GI50 (SNB-75)	GI50 (T47D)	GI50 (TK-10)	GI50 (UACC-257)
Cc1ccc(S(=O)(=O)N2CCCCN(S(=O)(=O)c3ccc(C)cc3)Cc3ccccc3OCCOCCOc3c4cccc3Cc3cccc5c3OCCOCCOc3ccccc3CN(S(=O)(=O)c3ccc(C)cc3)CCCN(S(=O)(=O)c3ccc(C)cc3)Cc3ccccc3OCCOCCOc3c(cccc3C4)Cc3cccc(c3OCCOCCOc3ccccc3C2)C5)cc1	> 100 µM (inactive)	> 100 µM (inactive)	> 100 µM (inactive)	> 100 µM (inactive)	> 100 µM	> 100 µM (inactive)	> 100 µM (inactive)	> 100 µM (inactive)	> 100 µM (inactive)	> 100 µM (inactive)	> 100 µM (inactive)	> 100 µM (inactive)	> 100 µM (inactive)	> 100 µM (inactive)	> 100 µM (inactive)	> 100 µM (inactive)	> 100 µM (inactive)	> 100 µM (inactive)	> 100 µM (inactive)	> 100 µM (inactive)
NC(=O)/N=C1\NCCC(=O)N1CCc1c[nH]c2ccccc12	24 µM (inactive)	18.9 µM (inactive)	21.5 µM (inactive)	19.4 µM (inactive)	20 µM	19.4 µM (inactive)	17.1 µM (inactive)	11 µM (inactive)	14.8 µM (inactive)	19.9 µM (inactive)	14.5 µM (inactive)	19 µM (inactive)	11.9 µM (inactive)	18.7 µM (inactive)	13.8 µM (inactive)	21.9 µM (inactive)	10.2 µM (inactive)	27.5 µM (inactive)	17.5 µM (inactive)	18.5 µM (inactive)
C=C(C)C12OC3(c4ccccc4)OC1C1C4OC4(CO)C(O)C4(O)C(=O)C(C)=CC4C1(O3)C(C)C2OC(=O)/C=C/C=C/c1ccccc1 (stereo not given)	0.101 µM (active)	< 0.0005 µM (active)	< 0.0005 µM (active)	< 0.0005 µM (active)	0.258 µM	0.551 µM (active)	0.0836 µM (active)	0.0968 µM (active)	0.0853 µM (active)	< 0.0005 µM (active)	0.113 µM (active)	0.173 µM (active)	0.111 µM (active)	0.107 µM (active)	0.247 µM (active)	0.112 µM (active)	0.132 µM (active)	1.51 µM (inactive)	< 0.0005 µM (active)	0.453 µM (active)
COc1ccc2c(c1)c(=O)c1c(NCCCN(C)C)ccc3ncn2c31	1.68 µM (inactive)	1.19 µM (inactive)	0.659 µM (active)	3.05 µM (inactive)	1.44 µM	0.783 µM (active)	1.13 µM (inactive)	1.54 µM (inactive)	4.78 µM (inactive)	5.37 µM (inactive)	0.215 µM (active)	1.15 µM (inactive)	2.65 µM (inactive)	1.29 µM (inactive)	1.31 µM (inactive)	1.72 µM (inactive)	6.3 µM (inactive)	16.3 µM (inactive)	6.1 µM (inactive)	12.2 µM (inactive)
NCCSCCC(=O)O	> 38.1 µM (inactive)	> 69.2 µM (inactive)	> 25.6 µM (inactive)	28.6 µM (inactive)	> 59 µM	> 68.5 µM (inactive)	> 84.1 µM (inactive)	39 µM (inactive)	> 74.8 µM (inactive)	> 81.7 µM (inactive)	29.7 µM (inactive)	> 100 µM (inactive)	> 82 µM (inactive)	25.8 µM (inactive)	> 77.3 µM (inactive)	> 43.1 µM (inactive)	> 40.3 µM (inactive)	> 33.5 µM (inactive)	> 67.1 µM (inactive)	> 59 µM (inactive)
CO/C(N)=C(C#N)/N=C/c1ccco1	> 100 µM (inactive)	> 100 µM (inactive)	> 100 µM (inactive)	> 100 µM (inactive)	> 100 µM	> 100 µM (inactive)	> 100 µM (inactive)	> 100 µM (inactive)	> 100 µM (inactive)	> 100 µM (inactive)	> 100 µM (inactive)	> 100 µM (inactive)	> 100 µM (inactive)	> 100 µM (inactive)	> 100 µM (inactive)	> 100 µM (inactive)	> 100 µM (inactive)	> 100 µM (inactive)	> 100 µM (inactive)	> 100 µM (inactive)
COc1ccc(/C=C2\CCS(=O)(=O)c3ccccc3C2=O)cc1OC	28.1 µM (inactive)	> 100 µM (inactive)	27.5 µM (inactive)	14.9 µM (inactive)	11.9 µM	38.5 µM (inactive)	36.7 µM (inactive)	19.1 µM (inactive)	38.9 µM (inactive)	45.4 µM (inactive)	46.2 µM (inactive)	17.9 µM (inactive)	27.5 µM (inactive)	35.2 µM (inactive)	29.3 µM (inactive)	28.2 µM (inactive)	24.9 µM (inactive)	32.3 µM (inactive)	26.9 µM (inactive)	35.5 µM (inactive)
Cn1c2ccccc2c(=O)c2cccc(C(=O)NC(CCCNC(=N)N)C(=O)O)c21 (stereo not given)	> 100 µM (inactive)	> 100 µM (inactive)	> 100 µM (inactive)	> 100 µM (inactive)	> 100 µM	> 100 µM (inactive)	> 100 µM (inactive)	> 100 µM (inactive)	> 100 µM (inactive)	> 100 µM (inactive)	> 100 µM (inactive)	> 100 µM (inactive)	> 100 µM (inactive)	> 100 µM (inactive)	> 100 µM (inactive)	> 100 µM (inactive)	> 100 µM (inactive)	> 100 µM (inactive)	> 100 µM (inactive)	> 100 µM (inactive)
COc1cc([C@@H]2C3C(=O)c4ccccc4C3[C@@H](c3cc(OC)c(OC)c(OC)c3)C23Cc2ccccc2C3=O)cc(OC)c1OC (stereo not given in full)	> 100 µM (inactive)	> 100 µM (inactive)	> 100 µM (inactive)	> 100 µM (inactive)	> 100 µM	> 100 µM (inactive)	> 100 µM (inactive)	> 100 µM (inactive)	> 100 µM (inactive)	> 100 µM (inactive)	> 100 µM (inactive)	> 100 µM (inactive)	> 100 µM (inactive)	37.8 µM (inactive)	> 100 µM (inactive)	> 100 µM (inactive)	21.8 µM (inactive)	> 100 µM (inactive)	> 100 µM (inactive)	> 100 µM (inactive)
COc1cccc2c1C(=O)OC2c1cccc2ccccc12 (stereo not given)	50.8 µM (inactive)	> 100 µM (inactive)	> 100 µM (inactive)	> 100 µM (inactive)	> 100 µM	36 µM (inactive)	> 100 µM (inactive)	> 100 µM (inactive)	> 100 µM (inactive)	> 100 µM (inactive)	> 100 µM (inactive)	37.8 µM (inactive)	> 100 µM (inactive)	> 100 µM (inactive)	72.8 µM (inactive)	> 100 µM (inactive)	23.8 µM (inactive)	> 100 µM (inactive)	> 73.3 µM (inactive)	> 91 µM (inactive)
C=CCn1cnc2c(O)nc(Nc3ccccc3)nc21	> 100 µM (inactive)	> 100 µM (inactive)	> 100 µM (inactive)	> 100 µM (inactive)	> 100 µM	> 100 µM (inactive)	> 100 µM (inactive)	> 100 µM (inactive)	> 100 µM (inactive)	> 100 µM (inactive)	12.8 µM (inactive)	> 100 µM (inactive)	> 100 µM (inactive)	> 100 µM (inactive)	> 100 µM (inactive)	> 100 µM (inactive)	> 100 µM (inactive)	> 100 µM (inactive)	> 100 µM (inactive)	> 100 µM (inactive)
